Like-named read-outs stand apart in the source and are kept apart here.
Tests used:
[1] = test system: KMBC2 bladder cancer cell line; test: viability assay GI50, bladder cancer cell line panel; format: cell-based; conditions: KMBC2, ARID1A WT
Source text: Black bar indicates cell line carrying at least one ARID1A stop-gain (denoted by an *) or frameshift (fs) allele as detailed below the chart. Green bar indicates line carrying a single missense mutation, while grey bars indicate those lines with no mutations in the coding region of ARID1A. Data represented as an average of duplicate wells±SD and are representative of duplicate independent experiments.
The cell lines used were obtained from ATCC (Manassas, VA), DSMZ (Braunschweig, Germany), ECACC (Salisbury, UK or through Sigma), or JCRB (Osaka, Japan) and were grown in media recommended by the vendor (or indicated in supplementary methods table 1) and maintained at 37° C. in humidified incubators with 5% CO2. Cell lines were maintained in T75 flasks and subcultured by releasing from plates with TrypLE solution (Thermo Fisher Scientific/Invitrogen #12604021) every 2-4 days, depending on growth kinetics of the cell line, to maintain growth at subconfluent levels.
A panel of 21 bladder cancer cell lines was evaluated for their response to Compound 1. […] No association between Compound 1 sensitivity and baseline levels of EZH1, EZH2, H3K27me3, ARID1A or ARID1B by western blot were observed.

[2] = test system: Breast Cancer PDX models, ARID1A mutated; test: PDX response rate (responder TGI > 50%); format: in vivo, mice
Experimental: (§1) Cell line derived xenograft tumor experiments were performed at WuXi AppTec, Shanghi, China. Patient derived xenograft experiments were performed at Crown BioScience Inc., Taicang Jiangsu Province, China, or Champions Oncology, Rockville, MD, US. All the procedures related to animal handling, care and the treatment in the xenograft studies were performed according to the guidelines approved by the Institutional Animal Care and Use Committee (IACUC) of WuXi AppTec or Crown BioScience Inc. following the guidance of the Association for Assessment and Accreditation of Laboratory Animal Care (AAALAC). The mice were kept in individual ventilation cages at constant temperature and humidity with 3-5 animals in each cage. Mice were checked daily for any effects of tumor growth and/or treatments on normal behavior such as mobility, food and water consumption, body weight gain/loss, eye, and any other abnormal effects. […] Animal body weight was monitored regularly as an indirect measurement of toxicity. Supplemented diet was provided after cell inoculation for all groups to help with body weight maintenance. If an animal lost >15% body weight, their treatments were suspended accordingly then resumed when body weight loss returned to <10%.
(§2) Tumor size was measured thrice weekly in two dimensions using a caliper, and the volume was expressed in mm3 using the formula: V=0.5a×b2 where a and b are the long and short diameters of the tumor, respectively. TGI was calculated for each group using the formula: TGI (%)=[1−(Ti−T0)/(Vi−V0)]×100; Ti is the average tumor volume of a treatment group on a certain day, T0 is the average tumor volume of the treatment group on the day of treatment start, Vi is the average tumor volume of the vehicle control group on the same day with Ti, and V0 is the average tumor volume of the vehicle group on the day of treatment start.
(§3) Next, we assessed in vitro and in vivo efficacy of Compound 1 in ARID1A LOF models of other solid cancers. […] Furthermore, comparative studies of ARID1A wild-type and ARID1A mutated PDX cancer models were performed (Table 6).

[3] = test system: Breast Cancer PDX models, ARID1A wild-type; test: PDX response rate (responder TGI > 50%); format: in vivo, mice
Experimental: as §1, §2, §3

[4] = test system: Colorectal Cancer PDX models, ARID1A mutated; test: PDX response rate (responder TGI > 50%); format: in vivo, mice
Experimental: as §1, §2, §3

[5] = test system: Colorectal Cancer PDX models, ARID1A wild-type; test: PDX response rate (responder TGI > 50%); format: in vivo, mice
Experimental: as §1, §2, §3

[6] = test system: Gastric Cancer PDX models, ARID1A mutated; test: PDX response rate (responder TGI > 50%); format: in vivo, mice
Experimental: as §1, §2, §3

[7] = test system: Gastric Cancer PDX models, ARID1A wild-type; test: PDX response rate (responder TGI > 50%); format: in vivo, mice
Experimental: as §1, §2, §3

[8] = test system: Lung Cancer PDX models, ARID1A mutated; test: PDX response rate (responder TGI > 50%); format: in vivo, mice
Experimental: as §1, §2, §3

[9] = test system: Lung Cancer PDX models, ARID1A wild-type; test: PDX response rate (responder TGI > 50%); format: in vivo, mice
Experimental: as §1, §2, §3

## COC1CN([C@H]2CC[C@H]([C@@]3(C)Oc4c(Cl)cc(C(=O)NCc5c(SC)cc(C)[nH]c5=O)c(C)c4O3)CC2)C1 [Compound 1, (R)-7-chloro-2-((1r,4R)-4-(3-methoxyazetidin-1-yl)cyclohexyl)-2,4-dimethyl-N-((6-methyl-4-(methylthio)-2-oxo-1,2-dihydropyridin-3-yl)methyl)benzo[d][1,3]dioxole-5-carboxamide]
[1]; 144 h, Day 6, read-out: GI50 (μM) Day 6
  GI50: > 10 µM
[1]; 288 h, Day 12, read-out: GI50 (μM) Day 12
  GI50: > 10 µM
[1]; 432 h, Day 18, read-out: GI50 (μM) Day 18
  GI50: > 10 µM
[2]
  % responder: 83%
  Responder (n out of x tested): 5/6
[3]
  % responder: 38%
  Responder (n out of x tested): 3/8
[4]
  % responder: 43%
  Responder (n out of x tested): 3/7
[5]
  % responder: 63%
  Responder (n out of x tested): 5/8
[6]
  % responder: 50%
  Responder (n out of x tested): 4/8
[7]
  % responder: 22%
  Responder (n out of x tested): 2/9
[8]
  % responder: 43%
  Responder (n out of x tested): 3/7
[9]
  % responder: 50%
  Responder (n out of x tested): 4/8

Source: patent publication US20260021082A1, “EZH2 INHIBITION THERAPIES FOR THE TREATMENT OF AT-RICH INTERACTIVE DOMAIN-CONTAINING PROTEIN 1A (ARID1A) MUTATED CANCERS” (Constellation Pharmaceuticals, Inc., priority 2022, published 2026)
